# Laboratory results taken from patent US9422238B2, “ICMT inhibitors” (National University of Singapore, priority 2012, dated 2016).
# Read-outs that look alike come from different tables or passages of the source.
# What was measured:
# physchem = conditions: for solubility at 24 h: 25 °C; for solubility at 24 h / solubility at 3 h: pH 7.4, aqueous buffer, kinetic from dmso stock
# Method: The turbid solution was delivered to the filter plate, agitated for a specific time period and then filtered. The concentration of dissolved compound in the filtrate was determined by uv spectroscopy and referred to pre-constructed calibration curves for solubility determination.
# (§1) Determination of aqueous solubility was carried out on Multiscreen® Solubility filter plates (Millipore-MSSLBPC10) from Millipore Corporation (MA, USA). The protocol (PC2445EN00, Millipore Corporation) was followed. Briefly, various concentrations of the test compound were prepared in Universal buffer (pH 7.4)/acetonitrile/DMSO. The UV absorbances of these solutions were obtained at a pre-determined wavelength and used to construct a calibration curve for the test compound. Next, a stock solution of the test compound in DMSO was prepared at a known concentration, diluted with Universal buffer (pH 7.4), dispensed into wells in the Multiscreen Solubility filter plate, and agitated for a period of time. The suspension is then filtered, the filtrate collected and diluted with acetonitrile to give the same solvent composition used to prepare the calibration solutions. The absorbance of the diluted filtrate was then read at the predetermined wavelength and the concentration of the filtrate (taken here to be equivalent to the solubility of the test compound) was determined from the calibration curve.
# as §1, with “24 hours at room temperature (25 deg C.). […]” for “a period of time.”, “was” for “is then”, “was” for “was then”, “(equivalent” for “(taken here to be equivalent”, “curve. […] LCMS determinations were made on an Agilent 1200 Series HPLC linked to a AB Sciex Instruments 3200 Q TRAP LC/MS/MS. Separations were carried out on a Phenomenex Luna column [3u, C18(2), 100A, 5×4.6 mm]. […] Quantification was based on the ratio of peak areas of the daughter ion and the mother ion (M+H), normalized against the same ratio obtained for the internal standard. The solubility determinations were carried out in triplicates or more from two different stock solutions.” for “curve.”
# [1] = system: MDA-MB-231 human breast cells; assay: Antiproliferative activity / cell viability (MTS, 72 h); conditions: Homo sapiens
# Method: (§4) The relative number of the live cells was determined using the CellTiter® 96 AQueous One Solution Cell Proliferation Assay (Promega). Determinations were made in duplicates or triplicates.
# Human breast cancer MDA-MB231, liver cancer HepG2 and lung fibroblast cells were purchased from ATCC (Rockville, Md.). MDA-MB231 cells and IMR-90 cells were grown in DMEM (Sigma Aldrich, Singapore) and EMEM (Sigma Aldrich, Singapore) respectively at 37° C., 5% CO2. DMEM was supplemented with 10% fetal bovine serum (Invitrogen, heat treated at 65 deg C., 30 min), 50 units/L penicillin-G and 50 μg/mL streptomycin. EMEM was supplemented with 10% fetal bovine serum (heat treated as above), 100 mg/L penicillin-G and 100 μg/mL streptomycin.
# Cell viability was assessed using CellTitre 96® Aqueous One Solution (Promega, Madison, Wis.) containing the tetrazolium salt 3-(4,5-dimethylthiazol-2-yl)-5-(3-carboxymethoxyphenyl)-2-(4-sulfophenyl)-2H-tetrazolium (MTS). […] Final concentration of DMSO per well was maintained at 0.5% v/v. […] Cell viability was determined from the expression:
# The plot was constrained to ≧0 and ≦100%. At least 3 independent determinations of IC50 were made using two different stock solutions of test compound.
# [2] = Aggregation tendency by dynamic light scattering (DLS); type: physicochemical; conditions: for DLS count rate (kcps): 1% DMSO, potassium phosphate buffer 5 mM pH 7.4
# Method: Stock solutions (10 mM) of test compounds prepared in DMSO, diluted to 1 mM with DMSO and then serially diluted with potassium phosphate buffer (5 mM, pH 7.4, prefiltered before use) to give final concentrations of 1 μM and 10 μM. Final concentration of DMSO was 1% v/v. Measurements were carried out on the Malvern Instrument Zetasizer Nano ZS system equipped with a 4 mW He—Ne laser at 633 nm and detector angle of 90°. Three or more determinations of derived count rates (kilocounts per second, kcps) were obtained from each concentration of test compound, using two separately prepared stock solutions. Data collection was carried out using the software supplied with the instrument. Results are represented as mean±standard deviation. The positive control was benzyl benzoate (250 μM) which gave a count rate of 1180 kcps (±35). The vehicle (phosphate buffer, 1% DMSO) gave a reading of 14.9±0.4.
# [3] = target: T1, Isoprenylcysteine carboxyl methyltransferase (Icmt) (Homo sapiens, UniProt O60725); assay: Icmt inhibition, scintillation proximity assay with BFC and [3H]SAM; type: biochemical
# T1 construct: made in house; host or cells: Sf9 (Spodoptera frugiperda) insect cells; membrane preparation provided by Prof PJ Casey (Duke University / Duke-NUS)
# Method: Isoprenylcysteine carboxyl methyltransferase (Icmt) was provided by Prof PJ Casey of Duke University, NC. S-Adenosylmethionine (SAM), magnesium chloride Hexahydrate (MgCl2), tartrazine, 4-(2-hydroxyethyl)-1-piperazineethanesulfonic acid (HEPES), dimethyl sulfoxide (DMSO) and dithiotreitol (DTT) were purchased from Sigma (Mo, USA). [^3H] S-Adenosylmethionine, [^3H] Biotin and Streptavidin PVT SPA Beads were purchased from PerkinElmer (Waltham, Mass.). Assays were performed in black small volume 384 well microtitre plates from PerkinElmer.
# Stocks of Icmt membrane protein (30 μg/μL) stored at −80° C. were thawed at 37° C. and placed on ice. The Icmt membrane protein was diluted in assay buffer (70 mM HEPES, 100 mM NaCl, 5 mM Mg Cl2 and 3 mM DTT, pH 7.5) to a 0.03 μg/μL working concentration and added to the wells of a microtitre plate (5 μl/well). To each wells 20 μl of the reaction buffer was added. The reaction was initiated with the addition of 5 μL of substrate solution containing BFC (6 μM), SAM (3 μM) and 30 μCi/mL [^3H] SAM (all of these reagents were stored at −20° C., SAM reagents thawed on ice, BFC thawed at RT). The plate was incubated at 37° C. for 30 minutes. The reaction was stopped with the addition of 15 μL of stop solution containing SAM (150 μM) and Streptavidin SPA beads (20 mg/mL). Following overnight incubation at ambient temperature radioactivity was counted on a Microbeta Trilux™ (Perkin Elmer, Turku, Finland).
# Sf9 (Spodoptera frugiperda ovarian) membranes containing recombinant Icmt were provided by Prof PJ Casey (Duke University, NC and Duke-NUS Graduate Medical School). S-Adenosylmethionine (SAM), magnesium chloride hexahydrate, tartrazine, 4-(2-hydroxyethyl)-1-piperazineethanesulfonic acid (HEPES) and dithiotreitol (DTT) were purchased from Sigma (Mo, USA). [^3H] S-Adenosylmethionine, [^3H] biotin and streptavidin PVT SPA Beads were purchased from PerkinElmer (Waltham, Mass.). Biotinylated farnesylcysteine was synthesized as described in an earlier report. Assays were performed in black 384-well microtitre plates from PerkinElmer.
# A vial of Icmt membrane protein (30 μg/μL) stored at −80° C. was thawed at 37° C. and placed on ice. The protein was diluted in assay buffer (70 mM HEPES, 100 mM NaCl, 5 mM MgCl2, 3 mM DTT, pH 7.5) to 0.03 μg/μL and aliquots were added to each well (5 μL/well), followed by 20 μL of the assay buffer. The reaction was initiated by adding 5 μL of a solution containing biotinylated BFC (6 μM), SAM (3 μM) and 30 μCi/mL [^3H] SAM. These reagents were stored at −20° C. and thawed on ice (SAM, [^3H] SAM) or at room temperature (BFC). The plate was incubated at 37° C. for 30 minutes after which the reaction was quenched by adding 15 μL of a solution comprising SAM (150 μM) and streptavidin SPA beads (20 mg/mL). After overnight incubation at ambient temperature, radioactivity was counted (Microbeta Trilux™, Perkin Elmer, Turku, Finland). The degree of inhibition was assessed from the radioactivity obtained in presence of test compound compared to that obtained from the control sample […]. Two independent determinations were made for each test compound.
# [4] = system: Human lung fibroblast IMR90 cells; assay: Cell viability on non-malignant cells (MTS, 72 h); type: cell-based
# Method: (§2) Cell viability was determined from the expression:
# (§3) The plot was constrained to ≧0 and ≦100%.
# Human lung fibroblast IMR90 cells were purchased from ATCC (Rockville, Md.) and grown in Eagle's Minimal Essential Media (EMEM, Sigma Aldrich, Singapore) at 37° C., 5% CO2. […] Seeding density was maintained at 4000 cells per well.
# [5] = system: PC3 Prostrate cancer cells; assay: Antiproliferative activity / cell viability (MTS, 72 h); type: cell-based, human; conditions: Homo sapiens
# Method: as §4
# [6] = system: Human hepatocellular carcinoma HepG2 cells; assay: Cell viability (MTS, 72 h); type: cell-based; conditions: HepG2, Table 6, mean (SD), read-out: IC50 (μM) HepG2
# Method: as §2, §3
# Human hepatocellular carcinoma HepG2 and human pancreatic cancer MIA PACA II cells were obtained from ATCC (Rockville, Md.). They were grown in DMEM (high glucose, Invitrogen) supplemented with 10% FBS, 50 μg/mL penicillin and 50 μg/mL streptomycin, 37° C., 5% CO2 until they reached 80-90% confluency, after which they were subcultured. Passage numbers were kept within 7-14 passages for both cell types.
# [7] = Parallel Artificial Membrane Permeability Assay (PAMPA); conditions: 500 uM stock, similar conditions
# Method: Briefly, determinations were carried out on MultiScreen-IP PAMPA assay (donor) plates (MAIPNTR10) and MultiScreen Receiver Plates (MATRNPS50) from Millipore Corporation (USA) with 1% lecithin (L-α-phosphatidylcholine from lyophilized powder of egg yolk, Sigma Aldrich, USA) in dodecane (ReagentPlus®, Sigma Aldrich, USA) as lipid barrier. 5 μL of 1% lecithin in dodecane was dispensed into the wells of the donor plates. […] The mobile phase was Milli-Q water (0.1% formic acid) and acetonitrile (0.1% formic acid), run on gradient.
# Pe was obtained from Equation 1:
# [formula] Where VA and VD are the volumes of acceptor (cm^3) and donor (cm^3) wells respectively, A is the area of the surface area of the membrane (0.24 cm^2), t is the permeation time (s); S is the fraction of sample remaining in the donor and acceptor wells after permeation time and is determined from Equation 2, CA and CD are the concentrations (μM) of test/reference compound in acceptor and donor wells respectively.
# The Pe of each compound was obtained from at least 3 separate experiments using no less than 2 different stock solutions. For each independent determination, triplicates (3 wells) were run for each compound.
# [8] = system: MDA-MB-231 human breast cells; conditions: earlier study; read-out: IC50 MDA-MB-231, previous value; cited from earlier work
# [9] = MDA-MB-231, 72 h, read-out: IC50 MDA-MB-231 (μM)
# [10] = MDA-MB-231, 72 h, read-out: IC50MDA-MB-231 (μM)
# [11] = Table 3, mean of two or more determinations (SD), read-out: IC50 Icmt
# [12] = IMR-90, further testing, 72 h, mean (SD), read-out: IC50 IMR90
# [13] = PC-3M, Table 3, 72 h, mean (SD), read-out: IC50 PC3
# [14] = MDA-MB-231, read-out: IC50 (μM) MDA MB 231
# [15] = IMR-90, Table 6, mean (SD), read-out: IC50 (μM) IMR90
# [16] = Table 6, from earlier table, read-out: IC50 (μM) PC3
# T1 sequence (O60725 whole entry, species assumed): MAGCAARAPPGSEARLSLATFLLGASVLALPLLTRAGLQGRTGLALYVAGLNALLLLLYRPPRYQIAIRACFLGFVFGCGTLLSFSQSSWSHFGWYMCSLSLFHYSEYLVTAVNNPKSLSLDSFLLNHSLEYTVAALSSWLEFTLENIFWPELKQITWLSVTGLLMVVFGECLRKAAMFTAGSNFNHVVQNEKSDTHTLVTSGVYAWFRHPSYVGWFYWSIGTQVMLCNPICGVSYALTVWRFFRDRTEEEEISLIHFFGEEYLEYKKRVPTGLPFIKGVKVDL
solubility at 24 h (physchem) [µM],Structure (SMILES),solubility at 3 h (physchem) [µM],"IC50 [1, 10] [µM]","IC50 [3, 11] [µM]","IC50 [5, 13] [µM]","IC50 [1, 14] [µM]",IC50 [6] [µM],also measured
24.9,CCCCCCCCn1cc(CN(CC)CC)c2cc(-c3cnc(N(C)C)nc3)ccc21,25.3,–,–,–,–,–,–
–,"CCCCCCCCn1cc(CN(CC)CC)c2cc(-c3cccnc3)ccc21 [Compound 8-7, Diethyl-(1-octyl-5-pyridin-3-yl-1H-indol-3ylmethyl)-amine]",250,5.5,1.75,5.84,–,–,"IC50 [1, 9]: 6.01 µM; DLS count rate (kcps) ([2]; 1 μM): 16.8 kcps; DLS count rate (kcps) ([2]; 10 μM): 16.5 kcps; Aqueous Solubility (pH 7.4) 24 hours (physchem; 24 h, pH 7.4): 244.8 (9.7) μM; Solubility (μM) (physchem; 24 h, pH 7.4): 244.8 (9.7) μM; IC50 [3]: 1.8 µM; IC50 [4, 12]: 5.52 µM"
–,"CCCCCCCCn1cc(CN(CC)CC)c2cc(-c3ccc(S(=O)(=O)NC)cc3)ccc21 [Compound 8-24, 4-(3-Diethylaminomethyl-1-octyl-1H-indol-5-yl)-N-methyl-benzensulfonamide]",–,8.52,1.71,–,8.7,4.76,–
–,"Cn1c(=O)c2c(ncn2C)n(C)c1=O [caffeine, reference compound]",–,–,–,–,–,–,Pe sequence of standard compounds [7]: verapamil>quinidine>caffeine
–,"CCCCCCCCn1cc(CN(CC)CC)c2cc(-c3ccc(S(C)(=O)=O)cc3)ccc21 [Compound 8-10, Diethyl-[5(4-methanesulfonyl-phenyl)-1-octyl-1H-indol-3ylmethyl]-amine]",–,5.56,1.72,4.74,5.56,3.44,"IC50 [4, 15]: 5.52 µM; IC50 [5, 16]: 4.74 µM"
–,"O=C(OCc1ccccc1)c1ccccc1 [benzyl benzoate, reference compound]",–,–,–,–,–,–,"DLS count rate ([2]; positive control, 250 μM): 1180 kcps"
–,"C=C[C@H]1C[N@@]2CC[C@H]1C[C@@H]2[C@@H](O)c1ccnc2ccc(OC)cc12 [quinidine, reference compound]",–,–,–,–,–,–,Pe sequence of standard compounds [7]: verapamil>quinidine>caffeine
272,"CCCCCCCCn1cc(CN(CC)CC)c2cc(-c3cncnc3)ccc21 [Compound 8-15, Diethyl-(1-octyl-5-pyrimidin-5-yl-1H-indol-3ylmethyl)-amine]",266,9,1.58,8.32,–,–,"IC50 [1, 9]: 13.2 µM; DLS count rate (kcps) ([2]; 1 μM): 20.4 kcps; DLS count rate (kcps) ([2]; 10 μM): 28.9 kcps; Solubility (μM) (physchem; 24 h, pH 7.4): 271.56 (6.63) μM; IC50 ([3]; further testing, mean (SD), read-out: IC50 Icmt): 1.6 µM; IC50 [4, 12]: 9.84 µM"

Structure (SMILES),solubility at 24 h (physchem) [µM],solubility at 3 h (physchem) [µM],"IC50 [1, 10] [µM]","IC50 [3, 11] [µM]","IC50 [5, 13] [µM]","IC50 [1, 14] [µM]",IC50 [6] [µM],also measured
CCCCCCCCn1cc(CN(CC)CC)c2cc(-c3cccc(C)c3)ccc21 [Compound 8-1],< 1,< 1,7.9,2.2,6.31,7.9,6.57,"IC50 [8]: 3.6 µM; IC50 ([3]; Table 3, mean of two or more determinations (SD), listed as 8.1, read-out: IC50 Icmt): 2.18 µM; IC50 [4, 15]: 5.26 µM; IC50 [5, 16]: 6.31 µM"
